Measurements published in patent publication US20220089600A1, “TGFß INHIBITOR AND PRODRUGS” (FUNDACIÓ INSTITUT DE RECERCA BIOMÈDICA (IRB BARCELONA), priority 2018, published 2022).

Columns and labels:
ALK4 (ACVR1B) = target: T1, ALK4 (ACVR1B) (Homo sapiens, UniProt P36896); assay: KINOMEscan affinity, competition binding
T1 construct: purchased Eurofins (KINOMEscan service)
Experimental: (§1) The affinity, measured as Kd (dissociation constants), of the compound of formula I for the ALK family was determined by using the KINOMEscan™ Technology from Eurofins. Selectivity in front of ALK1 (ACVRL1), ALK2 (ACVR1), ALK3 (BMPR1A), ALK4 (ACVR1B), ALK6 (BMPR1B), ACVR2B and TGFβR2 was determined.
(§2) The assay is performed by combining three components: DNA-tagged kinase; immobilized ligand; and a test compound. The ability of the test compound to compete with the immobilized ligand is measured via quantitative PCR of the DNA tag.
(§3) Test compounds were prepared as 111× stocks in 100% DMSO. Kds were determined using an 11-point 3-fold compound dilution series with three DMSO control points being the top concentration 30 μM. […] The compounds were then diluted directly into the assays such that the final concentration of DMSO was 0.9%. All reactions performed in polypropylene 384-well plate. Each was a final volume of 0.02 ml. […] The beads were then re-suspended in elution buffer (1×PBS, 0.05% Tween 20, 0.5 μM non-biotinylated affinity ligand) and incubated at room temperature with shaking for 30 minutes. The kinase concentration in the eluates was measured by qPCR.
(§4) Dissociation constants (Kds) for test compound-kinase interactions are calculated by measuring the amount of kinase captured on the solid support as a function of the test compound concentration.

ALK5 (TGFBR1) = target: T2, ALK5 (TGFBR1) (Homo sapiens, UniProt P36897); assay: KINOMEscan affinity, competition binding
T2 sequence (P36897 34-503): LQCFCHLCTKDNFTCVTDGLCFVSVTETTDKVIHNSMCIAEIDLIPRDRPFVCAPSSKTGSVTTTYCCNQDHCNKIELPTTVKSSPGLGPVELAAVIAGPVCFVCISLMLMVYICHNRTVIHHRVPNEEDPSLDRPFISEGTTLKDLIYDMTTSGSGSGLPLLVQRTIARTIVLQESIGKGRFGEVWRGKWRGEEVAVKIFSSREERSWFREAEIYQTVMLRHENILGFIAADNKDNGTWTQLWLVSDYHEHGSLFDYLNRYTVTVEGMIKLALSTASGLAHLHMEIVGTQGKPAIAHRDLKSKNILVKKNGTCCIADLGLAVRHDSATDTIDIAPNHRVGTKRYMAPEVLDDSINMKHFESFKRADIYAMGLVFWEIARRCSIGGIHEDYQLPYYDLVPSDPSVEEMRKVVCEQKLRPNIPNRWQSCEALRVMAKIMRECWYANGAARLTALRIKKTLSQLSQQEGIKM
Experimental: as §1, §2, §3, §4

panel of 97 proteins = assay: scanEDGE (KINOMEscan) selectivity panel; format: binding
Experimental: Using scanEDGE (KINOMEscan, Eurofins) assays, the selectivity of the compound of formula I against a panel of 97 proteins was also measured. The selectivity profile of the compound of formula was good.

[1] = test system: proteins in the SafetyScreen44 panel (versus ALK5); assay: SafetyScreen44 safety panel; conditions: SafetyScreen44 panel (Eurofins) of off-target proteins; read-out: selectivity ratios for the proteins in the SafetyScreen44 panel
Experimental: (§5) In addition, a safety assessment was performed by using the SafetyScreen44™ service from Eurofins. The targets therein are all strongly associated with in vivo adverse drug reactions as referenced in the publication Reducing safety-related drug attrition: the use of in vitro pharmacological profiling (Bowes J et al., Nature Review Drug Discovery 2012, 11(12): 909-922). The panel represents a rational first step in preliminary safety assessments as they provide early identification of potential off-target interactions for the optimization of safety margins. This Safety Panel includes both enzymatic and binding assays. The percentage of inhibition for the compound of formula I at 10 μM was lower than 50% for all proteins tested.

[2] = test system: proteins in the SafetyScreen44 panel; assay: SafetyScreen44 safety panel; conditions: at 10 μM, all proteins tested
Experimental: as §5

MTO129 liver metastases [3] = assay: Mouse liver metastasis initiation/formation assay with MTOs; format: in vivo; conditions: for Efficacy (Cure rate): two weeks, mice with no metastases
Description: Mouse tumor organoids (MTOs) are derived from compound transgenic mice (conditional mutations in Apc, Kras, Trp53 and Tgfbr2, as well as bearing Lgr5-EGFP/CreER^T2) of the C57BL6/J strain and cultured as described in Tauriello et al. 2018 Nature 554(7693): 538-543. doi: 10.1038/nature25492. Organoids are tumor epithelial cells grown in a 3D matrix where they adopt an organotypic architecture, typically as spheroids with a lumen. In this way, cells retain a relatively normal polarity (which means that the outside surface, inside/luminal surface and cell-cell contacts are individually specialized), which is more physiological than in conventional 2D cell culture.
In all experiments described in present invention MTO129 were used (Tauriello et al. Nature. 2018).
In patients, treatment doses were reduced to 80 to 150 mg b.i.d in a regime of 14 days on-14 days off.
MTOs expressing a luciferase reporter were measured by bioluminescence imaging, using retroorbital injection of 50 μl 15 mg/ml D-luciferin potassium salt (Resem BV). Photons per second from the region spanning thorax/abdomen were quantified and normalized to the measure at the day of injection.
Control mice were treated with 150 μl of vehicle.
In the experiment shown in FIG. 13, potency of the indicated compounds to inhibit metastasis formation was assessed. Mice were treatments with indicated compounds started two days after MTO129 transplantation and continued during two weeks. Mice were sacrificed at 4 weeks post transplantation and liver metastases (LiMs) were counted by eye on fixed livers.

MTO129 liver metastases [4] = assay: Liver metastasis formation assay versus compounds 338 and 337 (FIG. 17); format: in vivo, mouse; conditions: FIG. 17, 1× dose, day 2 to 18, count at 21 days
Experimental: In another experiment (FIG. 17), we compared the in vivo therapeutic activity of compound of formula I to the related compound 338 and compound 337. […] All mice were treated from day 2 to day 18 post inoculation of tumor cells. Number of liver metastases were counted at 21 days after MTO inoculation.

[5] = test system: MTO129 established liver metastases; assay: Overt metastatic disease model, alone or with anti-PD-1; conditions: monotherapy
Description: For this purpose, the protocol of mouse inoculation with MTO129 described for FIG. 13 was used, but here treatment with compounds started at day 16 post-inoculation. At this time point mice had developed large metastases. Treatments finished at day 24. […] In these experiments, the vast majority (>90%) of control mice die of liver metastatic disease.
Mouse tumor organoids (MTO129) were developed as indicated in example 3. C57BL/6J mice were purchased from Janvier at 6 weeks of age and injected at 7-8 weeks. For transplantation of MTO129 into the liver, cells were trypsinized (digesting the matrix and disaggregating organoids into single cells), counted and 300,000 cells were injected in HBSS (Hank's Balanced Salt Solution, Lonza) into the spleen, thus delivering the cells directly into the portal vein that connects the intestine to the liver. […] Treatment with compounds occurred by gavage (tube feeding) and mice were treated twice a day with 150 μl of compound suspension in vehicle. […] Control mice were given gavage vehicle and IgG2a isotype control antibody.
At this time point, mice had developed large liver metastases. Treatments finished at day 24. […] In these experiments, the vast majority (>90%) of control mice die of liver metastatic disease.

T1 sequence (P36896 24-505): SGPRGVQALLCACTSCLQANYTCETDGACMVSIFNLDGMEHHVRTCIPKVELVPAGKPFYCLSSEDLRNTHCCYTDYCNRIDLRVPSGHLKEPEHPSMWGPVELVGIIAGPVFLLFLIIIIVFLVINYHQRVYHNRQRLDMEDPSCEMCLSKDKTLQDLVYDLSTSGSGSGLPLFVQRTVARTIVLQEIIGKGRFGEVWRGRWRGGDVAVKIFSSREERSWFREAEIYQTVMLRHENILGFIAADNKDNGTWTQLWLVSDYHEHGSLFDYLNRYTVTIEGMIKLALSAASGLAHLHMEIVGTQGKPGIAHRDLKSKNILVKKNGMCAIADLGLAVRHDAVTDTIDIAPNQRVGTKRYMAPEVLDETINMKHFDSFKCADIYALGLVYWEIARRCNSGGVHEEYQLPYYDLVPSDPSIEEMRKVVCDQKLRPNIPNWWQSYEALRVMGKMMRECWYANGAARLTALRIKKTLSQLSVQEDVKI

Cc1cccc(-c2nn3c(c2-c2ccnc4ccc(O)cc24)CCC3)n1 [compound of formula I, 4-(2-(6-methylpyridin-2-yl)-5,6-dihydro-4H-pyrrolo[1,2-b]pyrazol-3-yl)quinolin-6-ol]
Selectivity improvement (ALK4 (ACVR1B); (I) versus Galunisertib): 1.4 | Selectivity against ALK5 (ALK4 (ACVR1B); ALK4 versus ALK5): 0.7 | Selectivity against ALK5 (ALK5 (TGFBR1); ALK5 versus ALK5): 1 | Kd (ALK5 (TGFBR1); KINOMEscan): 20 nM | ALK5 binding affinity, times higher than Galunisertib (ALK5 (TGFBR1); versus published galunisertib data): 8.6 times | selectivity profile (panel of 97 proteins): good | selectivity ratio at 10 μM [1]: > 500 | percentage of inhibition [2]: lower than 50% | Efficacy (Cure rate) (MTO129 liver metastases [3]; 0.3x dose): ~90% | Efficacy (Cure rate) (MTO129 liver metastases [3]; 1x dose): ~90% | Efficacy (Cure rate) (MTO129 liver metastases [3]; 3x dose): 100% | Efficacy (Cure rate) (MTO129 liver metastases [3]; 9x dose): 100% | liver tumor count (LiMs) compared to galunisertib (MTO129 liver metastases [3]; FIG. 3, 0.3× to 9× doses): significant lower amount of liver tumors | metastatic tumor growth inhibitory capacity (bioluminescence) (MTO129 liver metastases [3]; FIG. 4, 0.3× dose, day 3 until day 14): effective | activity in preventing liver metastasis formation, in words (MTO129 liver metastases [3]; FIG. 13, 0.3× dose (21.25 mg/Kg b.i.d)): still effective | activity in preventing liver metastasis formation, in words (MTO129 liver metastases [3]; FIG. 13, 1× dose): significant improved activity | effective dose, fold lower than the effective Galunisertib dose (MTO129 liver metastases [3]; in vivo experiments): 10 fold | effective dose (>50% efficacy) (MTO129 liver metastases [3]; oral, divided b.i.d.): 42.5 mg/kg/day | potency to block the formation of metastasis compared to compound 338 and compound 337 (MTO129 liver metastases [4]): enhanced potency | efficacy at reducing the number of liver metastasis compared to galunisertib ([5]; FIG. 14, 1× equimolar doses): improved efficacy | survival rates compared to galunisertib ([5]; FIG. 15, 1× equimolar doses): higher survival rates
